# Source: patent US10130677B2, “Antimicrobial peptide and uses thereof” (priority 2013, dated 2018)
# Read-outs that look alike come from different tables or passages of the source.
# Columns and labels:
# [1] = tested on: Pseudomonas aeruginosa PAO1; format: cell-based
# Method: (§1) Peptides were incubated with 1×10^6 CFU/ml of a mid-logarithmic culture of S. aureus JAR060131, methicillin resistant S. aureus (MRSA) LUH14616, Staphylococcus epidermidis RP62a, and Pseudomonas aeruginosa PAO1 in PBS without or with addition of pooled human plasma (Sanquin, Amsterdam, the Netherlands) at a final concentration of 50%. Antimicrobial activity is expressed as the 99.9% lethal concentration (LC99.9), i.e., the lowest peptide concentration which killed ≥99.9% of bacteria after 2 hours of incubation at 37° C. under shaking conditions.
# [2] = tested on: Staphylococcus epidermidis RP62a; format: cell-based
# Method: as §1
# [3] = tested on: methicillin resistant S. aureus (MRSA) LUH14616; format: cell-based, Staphylococcus aureus
# Method: as §1
# [4] = tested on: stationary phase S. aureus JAR060131; format: cell-based, Staphylococcus aureus
# Method: Bacteria were stored at −80° C. until use. Inoculi of mid log phase bacteria were prepared by incubating isolated bacterial colonies from blood agar plates in Tryptic Soy Broth (TSB) medium (Becton Dickinson, Le Pont de Clax, France) for 2.5 hours and then diluted to the concentration needed. Stationary phase S. aureus JAR060131 was obtained from 18-20 hour cultures.
# To assess the antimicrobial activity of the peptides towards stationary phase bacteria, peptides were incubated under the conditions described above with 1×10^6 CFU/ml of stationary phase S. aureus JAR060131, obtained from 18-20 hour cultures.
# [5] = tested on: S. aureus JAR060131; format: cell-based, Staphylococcus aureus; settings: for IC99.9: approx. 1 × 10^6 CFU/ml S. aureus JAR, within 2 hrs (Table 2)
# Method: Polypeptides of the invention preferably have an in vitro IC99.9 of at most 150 μM after 2 hours at 37° C. against at least one microbial species in the presence of 50% plasma. Said IC99.9 is preferably determined in accordance with a method for determining the antimicrobial activity as described herein in the Examples. Said method described in the Examples for determining antimicrobial activity of microbes not associated with biofilm involves the mixing of 50 microL of a solution of a polypeptide in PBS with addition of human plasma at a final concentration of 50% and 20 microL of bacterial suspension with 5×10^6 CFU per mL of PBS in a well. After incubation of this mixture for 2 hours at 37° C. under shaking conditions, a sample is used for assessment of the bacterial counts. The lowest peptide concentration at which there is 99.9% of bacteria killed, is called the inhibitory concentration (IC) 99.9. Bacterial counts can be determined by manual CFU counting. For determining antibacterial activity for instance 1×10^6 CFU/ml bacteria are used, for determining antifungal activity for instance 1×10^5 cells/ml are used.
# as §1
# [6] = 50% plasma, mid-logarithmic culture, median (Table 3)
substance,measurement,setting,value
"Ac-IGKEFKRIVERIKRFLRELVRPLR-NH2 [OP-145, JIGKEFKRIVERIKRFLRELVRPLRB, reference compound]",LC99.9,[1]; [6],>204.8 µM
same,LC99.9,[1]; PAO1,3.2 µM
same,LC99.9,[2]; [6],204.8 µM
same,LC99.9,[2]; RP62a,0.8 µM
same,LC99.9,[3]; [6],204.8 µM
same,LC99.9,[3]; methicillin resistant LUH14616,1.6 µM
same,LC99.9,"[4]; 50% plasma, stationary suspension, mean of three experiments (Table 4)",>204.8 µM
same,LC99.9,[4]; stationary phase JAR060131,1.6 µM
same,IC99.9,[5]; 50% plasma,204.8 µM
same,LC99.9,"[5]; 50% plasma, mid-logarithmic culture, median of at least two experiments (Table 3)",204.8 µM
same,LC99.9,"[5]; JAR060131, 2 h",1.6 µM
same,IC99.9,[5]; PBS,1.6 µM
